{"source": "patent US20090155784A1", "about": "“ASSESSMENT OF ASTHMA AND ALLERGEN-DEPENDENT GENE EXPRESSION” (Wyeth, priority 2007, published 2009)", "tested_on": "human whole blood", "test": "human whole blood assay verifying inhibitory activity of the inhibitor samples", "assay_type": "cell-based"}
{"compound": "CC(c1cc2ccccc2s1)N(O)C(N)=O", "note": "(stereo not shown) [Zileuton]", "values": [{"measurement": "inhibitory activity in a human whole blood assay", "value": "verified"}]}
